Assay results: US7582674B2, “Nutraceutical compositions and use thereof” (DSM IP Assets B.V., priority 2003, dated 2009)

Legend:
[1] = test system: murine macrophages RAW264.7; assay: Inhibition of NO (nitrite, Griess reaction) production in LPS-stimulated macrophages; assay type: cell-based
Protocol: (§1) In order to induce an in vitro ‘inflammatory response’, murine macrophages RAW264.7 were seeded into microtiter plates or 12-well plates and stimulated with lipopolysaccharide (LPS) without or with graded amounts of the test substances. Vehicle concentrations (i.e. DMSO) were kept constant. Culture supernatants were harvested after appropriate periods of time (4 to 24 hours). Prostaglandin E2 (PGE2) and nitrite produced from nitric oxide (NO) secreted into the culture medium were quantified by ELISA and the Griess reaction, respectively. The percentage of inhibition of PGE2 or NO production at a given concentration of the test substances (compared to maximal production by LPS-stimulated cells) was calculated.

[2] = test system: murine macrophages RAW264.7; assay: Inhibition of PGE2 (ELISA) production in LPS-stimulated macrophages; assay type: cell-based; conditions: combination = actually determined inhibition
Protocol: as §1

Work on `Oc1ccc(C=Cc2cc(O)cc(O)c2)cc1` [Resveratrol, resveratrol] yielded an inhibition at 10 µM ([1]; Mus musculus, RAW264.7, Table 1, LPS-stimulated macrophages, each substance at 10 μM, combination = actually determined inhibition) of 8.3%, an inhibition at 2 µM ([1]; Mus musculus, RAW264.7, Table 2, LPS stimulated macrophages, Resveratrol 2 μM) of 10% and an inhibition at 10 µM ([2]; Mus musculus, RAW264.7, Table 1, each substance at 10 μM) of 26.8%.

Molecule `CCC=CCC=CCC=CCC=CCC=CCCCC(=O)O` [EPA, 5,8,11,14,17-eicosapentaenoic acid] has an inhibition at 12.5 µM ([1]; Mus musculus, RAW264.7, Table 2, LPS stimulated macrophages, EPA 12.5 μM) of 12.9%.

For (−)-Epigallocatechin gallate [EGCG], the “% inhibition NO” value ([1]; Table 1, LPS-stimulated macrophages, each substance at 10 μM, combination = actually determined inhibition) was 4.4% and the “% inhibition PGE2” value ([2]; Table 1, each substance at 10 μM) was 1.8%.
